Reference: PubChem BioAssay AID1053155 (Broad Institute, 2014)

Biological target: Low-density lipoprotein receptor (Homo sapiens) (UniProt P01130)
Experiment: increase of LDL receptor protein in hepatoma cells – cell-based, HepG2, ELISA, plate reader, cherry-pick, orthogonal assay for Trib1 inducer project, dose response (AID 1053155)
Conditions: HepG2 LDLR protein ELISA, 24 h; for fold induction: measured here: max LDLR protein fold induction, stronger effect = higher value

Sequence of Low-density lipoprotein receptor (Homo sapiens) (P01130 whole entry, looked up): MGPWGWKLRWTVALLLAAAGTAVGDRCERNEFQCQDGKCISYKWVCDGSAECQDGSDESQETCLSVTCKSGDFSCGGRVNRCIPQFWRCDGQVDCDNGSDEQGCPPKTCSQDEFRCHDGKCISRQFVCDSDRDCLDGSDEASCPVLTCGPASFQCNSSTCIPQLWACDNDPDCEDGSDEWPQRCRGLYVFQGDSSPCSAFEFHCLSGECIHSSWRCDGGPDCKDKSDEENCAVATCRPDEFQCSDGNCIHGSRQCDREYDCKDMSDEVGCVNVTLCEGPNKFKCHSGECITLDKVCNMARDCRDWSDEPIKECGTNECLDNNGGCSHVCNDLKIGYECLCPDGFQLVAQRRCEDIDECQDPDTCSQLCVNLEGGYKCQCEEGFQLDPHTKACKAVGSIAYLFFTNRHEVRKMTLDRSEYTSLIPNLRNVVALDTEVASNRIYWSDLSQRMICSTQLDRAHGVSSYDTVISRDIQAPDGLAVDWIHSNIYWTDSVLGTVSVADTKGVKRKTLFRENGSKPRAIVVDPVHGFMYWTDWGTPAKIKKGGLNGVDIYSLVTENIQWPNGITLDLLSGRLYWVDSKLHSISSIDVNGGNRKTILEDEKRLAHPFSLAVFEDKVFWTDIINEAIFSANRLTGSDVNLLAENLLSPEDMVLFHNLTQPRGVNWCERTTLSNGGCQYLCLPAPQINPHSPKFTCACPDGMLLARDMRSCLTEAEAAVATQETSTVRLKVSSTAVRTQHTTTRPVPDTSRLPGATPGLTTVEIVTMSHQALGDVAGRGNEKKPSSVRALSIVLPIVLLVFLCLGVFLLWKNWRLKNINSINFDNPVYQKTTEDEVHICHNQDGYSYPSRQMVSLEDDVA

Row | AC50 [µM] | fold induction | Compound
1 | 18 | 3.3 | CN1C(=O)c2cc(NC(=O)c3ccc(C(F)(F)F)cc3)ccc2OC[C@@H]2O[C@@H](CC(=O)NC3Cc4ccccc4C3)CC[C@@H]21
2 | 0.55 | 4.6 | CN1C(=O)c2cc(NC(=O)c3ccc(C(F)(F)F)cc3)ccc2OC[C@@H]2O[C@H](CC(=O)NC3Cc4ccccc4C3)CC[C@@H]21
